Measurements taken from patent publication US10844002B2, “Lipids and lipid compositions for the delivery of active agents” (priority 2014, dated 2020).
Marks after values point to notes of the source that are not given here.

Key:
[1] = Encapsulation efficiency of RNA replicons (Quant-iT RiboGreen); type: physicochemical; settings: LNP 40% cationic lipid, 10% DSPC, 48% cholesterol, 2% PEG-DMG; RNA replicon
Protocol: Briefly, lipids were dissolved in ethanol (2m1), a RNA replicon was dissolved in buffer (2 ml, 100 mM sodium citrate, pH 6) and these were mixed with 2 ml of buffer followed by 1 hour of equilibration. The mixture was then dialized overnight against 1×PBS. The resulting product contained liposomes, with ˜70-95% encapsulation efficiency.
The percentage of encapsulated RNA and RNA concentration were determined by Quant-iT RiboGreen RNA reagent kit (Invitrogen), following manufacturer's instructions. The ribosomal RNA standard provided in the kit was used to generate a standard curve. LNPs were diluted 10× or 100× in 1× TE buffer (from kit) before addition of the dye. Separately, LNPs were diluted 10× or 100× in 1× TE buffer containing 0.5% Triton X before addition of the dye (to disrupt the LNPs and thus to assay total RNA). Thereafter an equal amount of dye was added to each solution and then ˜180 μL of each solution after dye addition was loaded in duplicate into a 96 well tissue culture plate. The fluorescence (Ex 485 nm, Em 528 nm) was read on a microplate reader. All LNP formulations were dosed in vivo based on the encapsulated amount of RNA.

RSV F protein = type: in vivo; settings: Table 4, BALB/c mice, intramuscular; for Log10(IgG titer), RNA (RSV-F), 2 weeks post 2nd immunization: 100 ng dose; for Log10(IgG titer), 1 ng RNA (RSV-F), 2 weeks post 2nd immunization: 1 ng vA375 replicon in LNP, days 0 and 21
[2] = Measurement of mRNA encapsulation in lipid nanoparticles (Quant-iT Ribogreen); type: physicochemical; settings: LNP cationic lipid/DSPC/cholesterol/stealth lipid, N:P 4:1, leptin mRNA
Protocol: All equipment and disposable supplies are certified free of RNase activity by the manufacturer or rendered RNase free by use of the RNaseZap reagent (LifeTechnologies). mRNA is encapsulated at a cationic lipid amine to mRNA phosphate (N:P) molar ratio of 4:1. Lipids (cationic lipid, DSPC, cholesterol and lipidated PEG or stealth lipid) are dissolved in ethanol. The molar ratios are 40:10:38:2, respectively. The mixture is sonicated briefly, then gently agitated for 5 minutes and then maintained at 37° C. until use. mRNA is exchanged into citrate buffer pH 5.8-6.0 by use of Amicon Ultra-15 centrifugal concentrators, and the final concentration is adjusted to 0.5 mg/ml and held at 37° C. until use. An equal volume of lipids in ethanol, mRNA in citrate buffer, and citrate buffer alone are drawn into disposable syringes. Tubing leading from syringes containing lipids and mRNA are attached to the T junction, and tubing leading from the syringe containing citrate buffer alone is paired with the tubing exiting the T-junction over a collection vessel containing a stir bar on an active stir plate. Syringes are placed in a syringe pump set to expel contents at a flow rate of 1 ml per minute.
The pump is activated, and the collected mRNA in lipid nanoparticles is transferred to SnakeSkin dialysis tubing (10,000 MWCO, Thermo Scientific). Material is dialyzed against RNAse- and pyrogen-free 1× phosphate buffered saline overnight at 4° C.
Percent encapsulation of mRNA in lipid nanoparticles is determined using the Quant-iT Ribogreen RNA Assay kit (Life Technologies). The LNP-mRNA suspension is assayed in buffer (mRNA outside the particle), and buffer plus Triton X-100 detergent (total mRNA). The difference calculated is the mRNA inside the particle. Prepare a 1000 ng/mL stock from the RNA provided in the kit and use this to generate a standard curve (0 ng/ml, 15.63-1000 ng/ml) in TE and TE+0.75% Triton X-100. Prepare LNP-mRNA samples in TE buffer and TE buffer+0.75% Triton X-100 with appropriate dilution so that reading is in the range of standard curve (400-2,000 fold). In a 384-well plate (Costar non-treated #3573) add 0.04 ml of standard (in duplicate) or sample (in triplicate) per well. Dilute Ribogreen reagent 240-fold in TE buffer and add 0.06 ml per well. Mix contents of wells and measure fluorescence (excitation=480 nm, emission=520 nm). Subtract background values (no RNA) from standard and test sample values and determine the concentrations of RNA in the samples using the standard curves. Determine the percent encapsulation of the sample by dividing the difference in concentrations between sample+triton and sample in buffer alone by the sample+triton concentration.

[3] = Characterization of LNP formulations: Z average particle diameter and polydispersity index; type: physicochemical; settings: LNP formulation; for Zav (nm): Z average particle diameter; for polydispersity: polydispersity index
From the text: The lipid nanoparticles have a size of about 1 to about 2,500 nm, about 1 to about 1,500 nm, about 1 to about 1,000 nm, in a sub-embodiment about 50 to about 600 nm, in a sub-embodiment about 50 to about 400 nm, in a sub-embodiment about 50 to about 250 nm, and in a sub-embodiment about 50 to about 150 nm. Unless indicated otherwise, all sizes referred to herein are the average sizes (diameters) of the fully formed nanoparticle, as measured by dynamic light scattering on a Malvern Zetasizer. The nanoparticle sample is diluted in phosphate buffered saline (PBS) so that the count rate is approximately 200-400 kcts. The data is presented as a weighted average of the intensity measure.

SMILES | Encapsulation efficiency (RNA %) [1] [%] | Log10(IgG titer), RNA (RSV-F), 2 weeks post 2nd immunization (RSV F protein) | % encapsulation (mRNA Leptin) [2] [%] | Log10(IgG titer), 1 ng RNA (RSV-F), 2 weeks post 2nd immunization (RSV F protein) | Zav (nm) [3] [nm] | polydispersity [3]
CCCCC/C=C\C/C=C\CCCCCCCCOc1ccc(OCCCCCCCC/C=C\C/C=C\CCCCC)c(COC(=O)CCN(C)C)c1 [Example 2, 2,5-bis((9Z,12Z)-octadeca-9,12-dien-1-yloxy)benzyl 3-(dimethylamino)propanoate] | 13.1 | 4.14 (100 ng dose)* |  |  |  | 
CCCCC/C=C\C/C=C\CCCCCCCCOc1ccc(OCCCCCCCC/C=C\C/C=C\CCCCC)c(COC(=O)OCCCN(C)C)c1 [Example 3, 2,5-bis((9Z,12Z)-octadeca-9,12-dienyloxy)benzyl 3-(dimethylamino)propyl Carbonate] | 85.0 | 4.77 (100 ng dose)* |  |  |  | 
CCCCCCCCCC(=O)OCCCCCCCCOc1ccc(OCCCCCCCCOC(=O)CCCCCCCCC)c(COC(=O)CCN(C)C)c1 [Example 5] |  |  | 59.0 |  |  | 
CCCCCCCCCC(=O)OCCCCCCCCOc1ccc(OCCCCCCCCOC(=O)CCCCCCCCC)c(COC(=O)C2CCN(C)CC2)c1 [Example 6, ((2-(((1-methylpiperidine-4-carbonyl)oxy)methyl)-1,4-phenylene)bis(oxy))bis(octane-8,1-diyl) bis(decanoate)] | 71.3 |  |  | 4.25 |  | 
CCCCCCCCCC(=O)OCCCCCCCCOc1ccc(OCCCCCCCCOC(=O)CCCCCCCCC)c(COC(=O)CCCN(C)C)c1 [Example 7, ((2-(((4-(dimethylamino)butanoyl)oxy)methyl)-1,4-phenylene)bis(oxy))bis(octane-8,1-diyl) bis(decanoate)] | 85.6 |  | 95.4 | 4.37 | 100.7 | 0.096
CCCCCCCCCC(=O)OCCCCCCCCOc1ccc(OCCCCCCCCOC(=O)CCCCCCCCC)c(COC(=O)C2CCN(C(C)C)CC2)c1 [Example 9, ((2-(((1-isopropylpiperidine-4-carbonyl)oxy)methyl)-1,4-phenylene)bis(oxy))bis(octane-8,1-diyl) bis(decanoate)] | 69.1 |  |  |  | 182.6 | 0.369
CCCCCCCCCC(=O)OCCCCCCCCOc1ccc(OCCCCCCCCOC(=O)CCCCCCCCC)c(COC(=O)OCCCN(C)C)c1 [Example 12, ((2-((((3-(dimethylamino)propoxy)carbonyl)oxy)methyl)-1,4-phenylene)bis(oxy))bis(octane-8,1-diyl) bis(decanoate)] | 89.8 |  |  | 4.40 | 97.3 | 0.116
CCCCCCCCCC(=O)OCCCCCCCCOc1ccc(OCCCCCCCCOC(=O)CCCCCCCCC)c(COC(=O)OCCCN(CC)CC)c1 [Example 13, ((2-((((3-(diethylamino)propoxy)carbonyl)oxy)methyl)-1,4-phenylene)bis(oxy))bis(octane-8,1-diyl) bis(decanoate)] | 92.1 |  |  |  |  | 
CCCCC/C=C\C/C=C\CCCCCCCCOc1cc(COC(=O)OCCCN(C)C)c(OCCCCCCCC/C=C\C/C=C\CCCCC)cc1C [Example 14, 3-(dimethylamino)propyl 4-methyl-2,5-bis((9Z,12Z)-octadeca-9,12-dien-1-yloxy)benzyl Carbonate] | 78.3 |  | 77.9 | 3.85 | 127.7 | 0.102
CCCCC/C=C\C/C=C\CCCCCCCCOc1cc(COC(=O)OCCCCN(C)C)c(OCCCCCCCC/C=C\C/C=C\CCCCC)cc1C [Example 15, 4-(dimethylamino)butyl 4-methyl-2,5-bis((9Z,12Z)-octadeca-9,12-dienyloxy)benzyl Carbonate] | 82.6 |  |  | 2.81 | 138.8 | 0.210
CCCCCCCCOC(CCC(=O)OCCCOc1ccc(OCCCOC(=O)CCC(OCCCCCCCC)OCCCCCCCC)c(COC(=O)CCCN(C)C)c1)OCCCCCCCC [Example 20, ((2-(((4-(Dimethylamino)butanoyl)oxy)methyl)-1,4-phenylene)bis(oxy))bis(propane-3,1-diyl) bis(4,4-bis(octyloxy)butanoate)] |  |  | 88.4 |  |  | 
CCCCCCCCOC(CCC(=O)OCCCCCOc1ccc(OCCCCCOC(=O)CCC(OCCCCCCCC)OCCCCCCCC)c(COC(=O)CCCN(C)C)c1)OCCCCCCCC [Example 21, ((2-(((4-(Dimethylamino)butanoyl)oxy)methyl)-1,4-phenylene)bis(oxy))bis(pentane-5,1-diyl) bis(4,4-bis(octyloxy)butanoate)] |  |  | 79.8 |  |  | 
CCCCCCCCOC(CCC(=O)OCCCCCOc1ccc(OCCCCCOC(=O)CCC(OCCCCCCCC)OCCCCCCCC)c(COC(=O)CCCN(CC)CC)c1)OCCCCCCCC [Example 22, ((2-(((4-(diethylamino)butanoyl)oxy)methyl)-1,4-phenylene)bis(oxy))bis(pentane-5,1-diyl) bis(4,4-bis(octyloxy)butanoate)] |  |  | 86.0 |  |  | 
CCCCCCCCOC(CCC(=O)OCCCCCOc1ccc(OCCCCCOC(=O)CCC(OCCCCCCCC)OCCCCCCCC)c(COC(=O)C2(C)CCN(C)CC2)c1)OCCCCCCCC [Example 23, ((2-(((1,4-Dimethylpiperidine-4-carbonyl)oxy)methyl)-1,4-phenylene)bis(oxy))bis(pentane-5,1-diyl) bis(4,4-bis(octyloxy)butanoate)] |  |  | 84.3 |  |  | 
CCCCCCCCCC(=O)OCCCCCCCCOc1ccc(COC(=O)C2(C)CCN(C)CC2)c(OCCCCCCCCOC(=O)CCCCCCCCC)c1 [Example 26, ((4-(((1,4-Dimethylpiperidine-4-carbonyl)oxy)methyl)-1,3-phenylene)bis(oxy))bis(octane-8,1-diyl) bis(decanoate)] |  |  | 90.8 |  |  | 
CCCCCCCCCC(=O)OCCCCCCCCOc1ccc(COC(=O)CCCN(C)C)c(OCCCCCCCCOC(=O)CCCCCCCCC)c1 [Example 27, ((4-(((4-(Dimethylamino)butanoyl)oxy)methyl)-1,3-phenylene)bis(oxy))bis(octane-8,1-diyl) bis(decanoate)] |  |  | 95.2 |  |  | 
CCCCCCCCCC(=O)OCCCCCCCCOc1ccc(COC(=O)CCCN(CC)CC)c(OCCCCCCCCOC(=O)CCCCCCCCC)c1 [Example 28, ((4-(((4-(Diethylamino)butanoyl)oxy)methyl)-1,3-phenylene)bis(oxy))bis(octane-8,1-diyl) bis(decanoate)] |  |  | 93.6 |  |  | 
